Results from ChEMBL document CHEMBL1139607, “Synthetic lanostane-type triterpenoids as inhibitors of DNA topoisomerase II” (Bioorg Med Chem Lett, 2005).
pEC50: −log10 of the molar value.

Key:
DNA topoisomerase II = DNA topoisomerase II (Homo sapiens, UniProt P11388+Q02880); assay: Inhibitory concentration against human DNA topoisomerase II; type: protein assay
A549 = assay: Effective dose on human lung carcinoma (A549) cells; type: functional; details: read-out: ED50 (the source's name)

Row | Compound | IC50 (DNA topoisomerase II) [µM] | pEC50 (A549)
1 | C[C@H](CC[C@@H](O)C(C)(C)O)[C@H]1CC[C@]2(C)C3CCC4C(C)(C)C(=O)C=C[C@]4(C)C3=CC[C@]12C (some centres not stated) | 149.97 | 4.57
2 | C[C@H](CC[C@@H](O)C(C)(C)O)[C@H]1CC[C@]2(C)C3CCC4C(C)(C)C(=O)C(Cl)=C[C@]4(C)C3=CC[C@]12C (some centres not stated) | 106.8 | 4.42
3 | C[C@H](CC[C@@H](O)C(C)(C)O)[C@H]1CC[C@]2(C)C3CCC4C(C)(C)C(=O)C(Br)=C[C@]4(C)C3=CC[C@]12C (some centres not stated) | 18.27 | 4.85
4 | C[C@H](CC[C@@H](O)C(C)(C)O)[C@H]1CC[C@]2(C)C3CCC4C(C)(C)C(=O)C(C#N)=C[C@]4(C)C3=CC[C@]12C (some centres not stated) | 83.23 | 4.59
5 | C[C@H](CC[C@@H](O)C(C)(C)O)[C@H]1CC[C@]2(C)C3CCC4C(C)(C)C(=O)C(C=O)=C[C@]4(C)C3=CC[C@]12C (some centres not stated) | 1.86 | 4.88
6 | COC1=C[C@]2(C)C3=CC[C@]4(C)[C@@H]([C@H](C)CC[C@@H](O)C(C)(C)O)CC[C@]4(C)C3CCC2C(C)(C)C1=O (some centres not stated) | 22.7 | 4.53
7 | C[C@H](CC[C@@H](O)C(C)(C)O)[C@H]1CC[C@]2(C)C3CCC4C(C)(C)C(=O)C(C(=O)O)=C[C@]4(C)C3=CC[C@]12C (some centres not stated) | 23.8 | 5.13
8 | COC(=O)C1=C[C@]2(C)C3=CC[C@]4(C)[C@@H]([C@H](C)CC[C@@H](O)C(C)(C)O)CC[C@]4(C)C3CCC2C(C)(C)C1=O (some centres not stated) | 66.51 | 5.40
9 | COc1cc([C@@H]2c3cc4c(cc3[C@@H](O[C@@H]3O[C@@H]5CO[C@@H](C)O[C@H]5[C@H](O)[C@H]3O)[C@H]3COC(=O)[C@H]23)OCO4)cc(OC)c1O [ETOPOSIDE] |  | 5.47
